This note sets out measurements from US7994192B2, “Substituted thienopyridone compounds with antibacterial activity” (Crestone, Inc., priority 2006, dated 2011).

The subject of assay [1] is C. difficile. The experiment in a line: Sporulation of C. difficile clinical isolates on agar containing compound. Type of assay: cell-based.
Assay [2] deals with C. difficile. The experiment in a line: C. difficile-infected hamster survival study. It counts as in vivo. As for the experimental part: Animal studies were performed to determine the efficacy of MetRS inhibitors for treating C. difficile-infections. The MetRS inhibitors tested were 5-[3-((R)-6,8-Dibromo-chroman-4-ylamino)-propylamino]-4H-thieno[3,2-b]pyridine-7-one (both racemic mixture and the R enantiomer) and 5-[3-((R)-8-Bromo-6-chloro-chroman-4-ylamino)-propylamino]-4H-thieno[3,2-b]pyridin-7-one. Also tested was 2-(3-{3,5-Dibromo-2-[2-(4-methyl-thiazol-5-yl)-ethoxy]-benzylamino}-propylamino)-1H-quinolin-4-one.
Results were compared to C. difficile-infected hamsters treated with the conventional antibiotic, vancomycin. Infected hamsters were treated with either a solution or suspension of a MetRS inhibitor at 5 to 50 mg/kg or vancomycin at 2.5, 5 or 25 mg/kg. There were eight hamsters per group with the final endpoint of the experiment being survival. Expired hamsters were examined for GI condition.

Some results are limits rather than exact numbers.

As for `O=c1cc(NCCCN[C@@H]2CCOc3c(Br)cc(Br)cc32)[nH]c2ccsc12` [5-[3-((R)-6,8-Dibromo-chroman-4-ylamino)-propylamino]-4H-thieno[3,2-b]pyridine-7-one], the “spores (share of total cells)” value is listed as under 2% in the assay on C. difficile [1] (0.25×MIC, 96 hours, all strains) and under 1% in the assay with C. difficile [1] (0.5×MIC, 96 hours, all strains). Also, the “survival on Day 28” value in the assay on C. difficile [2] (5 mg/kg BID) is over 60%. Further, the “efficacy ranking among the MetRS inhibitors tested” value with C. difficile [2] (hamster, in vivo) was “best efficacy”.

For the compound `Cc1ncc([N+](=O)[O-])n1CCO` [metronidazole, reference compound], the “spores (share of total cells)” value with C. difficile [1] (subMIC concentrations, all tested strains) is reported as “up to 100%”.

Turning to `CN[C@H](CC(C)C)C(=O)N[C@H]1C(=O)N[C@@H](CC(N)=O)C(=O)N[C@H]2C(=O)N[C@H]3C(=O)N[C@H](C(=O)N[C@H](C(=O)O)c4cc(O)cc(O)c4-c4cc3ccc4O)[C@H](O)c3ccc(c(Cl)c3)Oc3cc2cc(c3O[C@@H]2O[C@H](CO)[C@@H](O)[C@H](O)[C@H]2O[C@H]2C[C@](C)(N)[C@H](O)[C@H](C)O2)Oc2ccc(cc2Cl)[C@H]1O` [vancomycin, reference compound], in the assay with C. difficile [2] (vancomycin treatment, dose not given in the sentence (2.5, 5 or 25 mg/kg used)), the “survival on Day 28” value was 0-10%.
